{"source": "patent US10413535B2", "about": "“Pharmaceutical compositions comprising an integrin ALPHA4 antagonist for use in treating ocular inflammatory conditions” (AXEROVISION, INC., priority 2015, dated 2019)", "key": {"[1]": {"system": "RPMI 8866 binding to VCAM-1", "assay": "VCAM cell adhesion assay, RPMI 8866 cells", "type": "cell-based", "settings": "Homo sapiens; RPMI 8866 cells to VCAM-1; read-out: Inhibition of cell adhesion (IC50)", "experimental": "(§1) Jurkat J6 cells (human lymphoblast cell line) were grown as a suspension culture in RPMI 1640 supplemented with FCS (10%) and glutamine (2 mM). RPMI8866 cells (human B lymphoid cell line) were grown as a suspension culture in RPMI 1640 supplemented with FCS (10%) and glutamine (2 mM). RBL-2H3 cells (rat basophilic cell line) were cultured in Eagle's MEM plus Earles salts supplemented with 2 mM L-glutamine, 1 mM sodium pyruvate, 1× non-essential amino acids, 1 mM Na pyruvate 10% heat inactivated foetal calf serum.\nPolystyrene 96-well microtitre plates were coated with IgG at a concentration of 0.05 mg/mL in bicarbonate buffer for 2 hours at 37° C. The solution was aspirated and the plates washed twice with PBS. The plates were then incubated overnight at 4° C. with a 1:4000 dilution of VCAM-1 of 3% BSA in PBS. Prior to use the VCAM-1 was aspirated and the plates washed twice with PBS.\nJ6 or RPMI cells (as required) were labelled with the fluorescent dye BCECF-AM (10 μM and 6×10^6 cells/mL) for 10 min at 37° C. before the excess was removed by centrifugation at 500 g for 5 min and the cells resuspended at a cell concentration of 1.2×10^7 cells/mL in HBSS. Equal volumes HBSS containing the compound of formula I (over concentration range 38.1 pM to 10 μM) and cells were added to the VCAM-1 coated plates. […] The plates were counted in a Wallac Viktor."}, "[2]": {"system": "RPMI 8866 binding to CS-1", "assay": "CS-1 cell adhesion assay, RPMI 8866 cells", "type": "cell-based", "settings": "Homo sapiens; RPMI 8866 cells to CS-1; identical duplicate values; read-out: Inhibition of cell adhesion (IC50)", "experimental": "as §1\nPolystyrene 96-well microtitre plates were coated with CS-1 (connecting segment 1, a cell attachment domain of fibronectin) at a concentration of 0.01 mg/mL in bicarbonate buffer overnight at 4° C. The solution was aspirated and the plates washed twice with PBS. The plates were then incubated at room temperature in the presence of 3% BSA for 60 min, ‘flicked’ to expel the BSA and washed twice in bicarbonate buffer. J6 or RPMI cells (as required) were labelled with the fluorescent dye BCECF-AM (10 μM and 6×10^6 cells/mL) for 10 min at 37° C. before the excess was removed by centrifugation at 500 g for 5 min and the cells resuspended at a cell concentration of 1.2×10^7 cells/mL in HBSS. Equal volumes of HBSS containing the compound of formula I (over concentration range 19.0 pM to 5 μM) and cells were added to the CS-1 coated plates. […] The plates were counted in a Wallac Viktor."}, "[3]": {"system": "cells of draining cervical lymph nodes", "assay": "Flow cytometry of draining cervical lymph nodes, desiccating stress 1 day", "type": "in vivo, mouse", "settings": "1 day DS; for CD11c+ dendritic cells in draining cervical lymph nodes / CD11c+/MHC II+ dendritic cells in draining cervical lymph nodes: listed as compound of formula I", "experimental": "Female C57BL/6 mice, aged 6 to 8 weeks, were subjected to DS for 5 days (DS5) as described previously (de Paiva et al., 2006b; Niederkorn et al., 2006). Topical bilateral treatment with 1 eye drop per eye (2 μL volume) or subcutaneous injection (4 μL volume), 2 times per day, was initiated on day 1 concurrently with DS and continued through day 4. Treatment with the compound of formula I or dexamethasone phosphate 0.1% was compared to correspondingly treated vehicle controls. Mice were randomized to receive one of the test articles. Control mice were kept in a non-stressed (NS) environment maintained at 50-75% relative humidity without exposure to airflow or scopolamine and were not treated with test or control article. Treatment effects were assessed on corneal staining with Oregon Green Dextran (OGD); expression of inflammatory markers in ocular surface tissues by real time PCR; cell population analysis in draining cervical lymph nodes by FACS analysis; conjunctival T cell infiltration by immunohistochemistry.\nCervical draining lymph nodes (CLN) were surgically excised, placed in a round culture plate with ˜8 mL of complete RPMI media and smashed between two frosted slides.\nSingle-cell suspensions of CLN from C57BL/6 mice, treated under DS conditions for 1 day, were prepared, centrifuged and sequentially filtered, as previously described (de Paiva et al., 2009a). Subsequently 1.0 mL of ACT solution was added for 30 seconds followed by 2.0 mL of complete RPMI. The cells were once again centrifuged and the supernatant aspirated. Cells were then re-suspended in 2.0 mL of complete RPMI and prepared for counting. Ten μL of Trypan Blue were used for counting and the cells were divided in tubes at 1×10^6 cells/mL. Subsequently, the cells were incubated on ice in 20 μL unconjugated anti-mouse CD16/CD32 (BD Pharmingen, San Diego, Calif.) followed by 80 μL of directly conjugated primary antibody or isotype. Finally the samples were washed with 1 mL PBS/1% FBS, centrifuged and re-suspend in 0.3 mL PBS/1% FBS containing 1:1000 of PI. The samples were stored at 4° C. until the analysis was performed with an A BD LSRII Benchtop cytometer. The data was analysed using BD Diva Software (BD Pharmingen) and FlowJo (TreeStar Inc).\nDue to skewed distribution of OGD data, the analysis was done on the log 10 scale to make the data more normally distributed. Log 10 OGD data was averaged across two observers and the left and right eyes. The mixed effects ANOVA model included treatment group as a fixed effect and week as a random effect. 95% and 99% confidence intervals were constructed for the disease (5 day DS vs untreated group kept in separate vivarium) and compound treatment effects (treatment vs vehicle). As these comparisons were all pre-planned (comparing each treatment to its vehicle group), no adjustment was made for multiplicity. Log 10 scale treatment effect estimates and confidence limits were converted back to the original OGD scale, thus representing the estimate for the ratio of group geometric means and their confidence limits. For gene expression analysis, an unpaired T test was performed to compare drug and vehicle treatment. For flow cytometry analysis, a 2-way ANOVA with fixed treatment and random experiment effects was employed to test the treatment differences. The analysis was followed by Dunnett's multiple comparison procedure to compare each of the treatment groups with the vehicle group. T cell density was calculated for each section and averaged across sections for each animal. As the distribution of average cell density data was non-normal, it was analyzed by using non-parametric methods (Kruskal-Wallis procedure, followed by Dunn's multiple comparisons technique).\nThe draining CLN are an integral part of the immune cycle in DED (Pflugfelder et al., 2008; Schaumburg et al., 2011). […]"}, "[4]": {"system": "non-α4 integrins, including LFA-1", "settings": "cited from earlier work"}, "[5]": {"settings": "topical treatment, vs vehicle (GW559090 30 mg/mL, 60 μg per eye; Dex 0.1%)"}}, "note": "“Also recorded” adds a separate entry of the source."}
{"smiles": "Cc1ccccc1OCC(=O)N[C@@H](CC(C)C)C(=O)N[C@@H](Cc1ccc(OC(=O)N2CCC(C(N)=O)CC2)cc1)C(=O)O", "note": "[GW559090, (2S)-3-[4-({[4-(Aminocarbonyl)-1-piperidinyl]carbonyl}oxy)phenyl]-2-[((2S)-4-methyl-2-{[2-(2-methylphenoxy)acetyl]amino}pentanoyl)amino]propanoic acid]", "values": [{"measurement": "IC50", "setting": "[1]", "result": 4.81, "unit": "nM"}, {"measurement": "IC50", "setting": "[2]", "result": 24.5, "unit": "nM"}, {"measurement": "CD4+ and CD8+ T cells in draining lymph nodes", "setting": "[3]", "result": "nor did treatment with the compound of formula I or dexamethasone decrease the number of T cells"}, {"measurement": "CD11c+ dendritic cells in draining cervical lymph nodes", "setting": "[3]; systemic (SC BID, 120 μg)", "result": "Neither systemic treatment with the compound of formula I nor topical treatment with dexamethasone phosphate produced the same effect; also recorded: no significant effect"}, {"measurement": "CD11c+/MHC II+ dendritic cells in draining cervical lymph nodes", "setting": "[3]; systemic (SC BID, 120 μg)", "result": "no significant effect"}, {"measurement": "CD11c+ dendritic cells in draining cervical lymph nodes", "setting": "[3]; [5]", "result": "reduced; also recorded: decreases"}, {"measurement": "CD11c+/MHC II+ dendritic cells in draining cervical lymph nodes", "setting": "[3]; [5]", "result": "reduced; also recorded: decreases"}, {"measurement": "Selectivity vs. non-α4 integrins", "setting": "[4]", "result": "highly selective"}]}
